The results in this text go back to patent US4871774A, “Medical treatment” (The Boots Company PLC, priority 1987, dated 1989).

Each structure is given as a SMILES string.

In this assay the test system is dopamine reuptake; unilateral nigrostriatal lesioned rats. Kind of assay: Ipsilateral circling behaviour of unilateral nigrostriatal (6-OHDA) lesioned rats. The note with it: methamphetamine challenge 2 mg/kg intraperitoneal; selected rats. It counts as in vivo, rat (CD). An excerpt:
The two tracts of the nigrostriatal dopamine system are independent and are located on either side of the midline of the brain. When one tract is destroyed using the specific neurotoxin, 6-hydroxydopamine (6-OHDA), rats will display characteristic circling behaviour after injection of dopaminergic drugs. The direction of rotation, however, is dependent on the stimulus employed. Drugs which inhibit dopamine reuptake can only function on the unlesioned side of the brain and induce circling towards the lesion site (known as ipsilateral circling.)
Male CD rats (250-300 g: Charles River) were anaesthetised with `Equithesin` type anaesthetic (3.2 ml/kg i.p.) and secured in a stereotaxic frame (David Kopf Small Animal Stereotaxic Instrument DKI 900). After shaving the area, a saggital incision of 1.5-2 cm was made and skin flaps dissected from the skull. A small hole was made in the skull, using a No. 6 dental burr, to allow the tip of a 30 s.w.g. stainless steel cannula to be inserted to the left substantia nigra. This was located by using the following co-ordinates, using skull landmark bregma as the zero reference point; rostral-caudal -2.8; medial-lateral +2.0; dorsal-ventral -8.0 from the surface of the dura, all co-ordinates measured in millimetres. This system of co-ordinates is a modification of the de Groot system as described by Pellegrino et al (A stereotaxic atlas of the rat brain, 2nd Edition, Plenum Press 1979). 6-Hydroxydopamine HBr (2 μg/μl, as base: Sigma Chemical Co.) was injected into the left substantia nigra at 1 μl/min; a total of 8 μg was administered over a period of 4 minutes using an infusion pump (Braun `Perfusor` ED2). After removal of the cannula, the skin flaps were joined with a single everted suture and the animal allowed to recover.
After 21 days, the circling behaviour of the rats was examined. They were placed, individually, in circular plastic arenas (30 cm diameter×12 cm high) for 1 hour, with no access to food or water during this period. […] One `turn` consisted of rotation through 360° in either direction. As rats were always lesioned on the left side of the brain, anticlockwise turns were ipsilateral.
Control values were determined for all rats by observing their spontaneous circling behaviour in the arenas without prior dosing. The mean turns per minute was always less than 1.
The rats were challenged with an intraperitoneal dose of methamphetamine (2 mg/kg) and immediately placed in the arenas. In these experiments circling behaviour was monitored during two periods, 0-1 h and 4-5 h after dosing. Rats giving a mean of more than 5 ipsilateral turns per minute during the first hour in response to methamphetamine were used in subsequent tests. Following selection, the rats were used in groups of 5 or more rats to test the drug under investigation.

Turning to `CN[C@@H](C)Cc1ccccc1` [methamphetamine, reference compound], the “mean response of the group, ipsilateral turns per minute” value was “more than 10 ipsilateral turns per minute”.
